Source: patent publication US20240287138A1, “CYCLIC PEPTIDES FOR INHIBITING TNF RECEPTOR 1 ACTIVITY” (Merck Sharp & Dohme LLC, priority 2023, published 2024)
Where two headings read alike, the source gives them in different places. Numbered stars: 1 amine (or outer) side, 2 acyl side, 3 side chain; on linkers, the order of the positions; unused ones are H or OH. Bridge positions count the residues as written; N and C are the ends. Square brackets hold non-standard residues; d marks the D form. Peptide text beside a SMILES is read from it. Trp(βS-Me,7-OMe) = COc1cccc2c([C@H](C)[C@H](N)C(=O)O)c[nH]c12; X12 = C[C@@H](c1ccc(O)cc1)[C@H](N[*:1])C(=O)[*:2]; Trp(7-Cl) = N[C@@H](Cc1c[nH]c2c(Cl)cccc12)C(=O)O; Phe(4-CONH2) = NC(=O)c1ccc(C[C@H](N)C(=O)O)cc1; Phe(4-COOH) = N[C@@H](Cc1ccc(C(=O)O)cc1)C(=O)O; X25 = O=C(O)c1ccc(C[C@H](N[*:1])C(=O)[*:2])cn1; Trp(7-aza) = N[C@@H](Cc1c[nH]c2ncccc12)C(=O)O; X18 = O=C([C@@H]1C=C[C@H](N[*:1])C1)[*:2]; Pip(5R-OH) = O=C(O)[C@@H]1CC[C@@H](O)CN1; X1 = O=C([C@@H]1CC[C@H](N[*:1])C1)[*:2]; Pip(4-aza) = O=C(O)[C@@H]1CNCCN1; hPhe = N[C@@H](CCc1ccccc1)C(=O)O; 4Pal = N[C@@H](Cc1ccncc1)C(=O)O; NMeE = CN[C@@H](CCC(=O)O)C(=O)O; dHyp = O=C(O)[C@H]1C[C@H](O)CN1; Lys(Me) = CNCCCC[C@H](N)C(=O)O; αMeS = C[C@](N)(CO)C(=O)O; NMeA = CN[C@@H](C)C(=O)O; Nle = CCCC[C@H](N)C(=O)O; Sar = CNCC(=O)O

What was measured:
human TNFR2 ECD protein = biological target: T1, human TNFR2 ECD protein (Homo sapiens, UniProt P20333); assay: SPR off-target binding (selectivity) to human TNFR2 ECD
T1 construct: HRV 3C protease cleavage site (C); 6His (C, cleaved yes); made in house; host or cells: Sf21 insect cells (baculovirus), secreted
T1 sequence (P20333 23-257): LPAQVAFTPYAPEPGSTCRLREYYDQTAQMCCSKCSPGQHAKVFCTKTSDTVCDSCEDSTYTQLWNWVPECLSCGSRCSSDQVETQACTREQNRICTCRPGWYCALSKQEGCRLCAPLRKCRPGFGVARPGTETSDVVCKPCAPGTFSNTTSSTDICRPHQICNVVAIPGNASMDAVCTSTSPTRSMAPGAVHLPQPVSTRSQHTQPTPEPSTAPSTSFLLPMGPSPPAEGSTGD
Description: (§1) B. Procedure for Binding Affinity and Selectivity measured by SPR
(§2) Affinity and selectivity for hTNFR1 and TNFR2 was determined using SPR. Human TNFR1 or TNFR2 genes (extracellular domain only) were synthesized with a C-terminal Avi-tag, HRV 3C protease cleavage site followed by a 6His-tag for affinity purification. The final gene product was cloned into pBAC™-1 vector (Millipore Sigma) for expression testing in insect cells. Constructs were transfected into Sf21 cells for baculovirus generation followed by protein expression analysis in Sf21 and Tni cell lines. Large scale expression in Sf21 cells was performed using baculovirus infected insect cells (BIICs) infected at a MOI=2.0 grown for 72 h. Target proteins secreted into the media were harvested via centrifugation and concentrated using diafiltration. TNFR was purified by immobilized metal ion affinity chromatography (IMAC) using a Ni-Sepharose HisTrap™ column (Cytiva™). Isolated TNFR had His tag removed using HRV 3C protease followed by additional purification using Ni-NTA chromatography. Biotinylation was performed on Ni-NTA flow-through fractions concentrated to 45 μM and treated with BirA ligase (1:100, μg/μg ratio) in 50 mM Tris pH 7.5, 150 mM NaCl, 50 μM biotin, 10 mM magnesium acetate, 10 mM ATP at 4° C. for 20 h. Final purification of biotin-TNFR and buffer exchange into 20 mM HEPES pH 7.5, 150 mM NaCl was performed using a HiLoad® Superdex® 200 26/60 column (Cytiva™). Highly purified protein was aliquoted and stored at −80° C.
(§3) The SPR assay uses a Cytiva™ 8K or 8K+ biosensor instrument to measure the kinetics of peptide analytes binding to captured human TNFR1 extracellular domain (ECD) protein; peptide analytes are also evaluated for any off-target binding to human TNFR2 ECD protein in parallel. Recombinant human TNFR1 ECD and human TNFR2 ECD proteins, biotinylated via engineered C-terminal avi-tags, are immobilized to a regenerable streptavidin biosensor chip surface (Cytiva™ Biotin CAPture kit, Series S; cat. #28920234). Peptide analytes binding to immobilized human TNFR1 ECD protein and their subsequent dissociation are conducted in a buffer of 10 mM HEPES pH 7.4, 150 mM NaCl, 3 mM EDTA, 0.05% P20,2% DMSO under laminar flow conditions and measured in response units (RU), which are directly proportional to the accumulated mass on the surface of the biosensor chip; the biosensor chip surface is regenerated via Cytiva™ proprietary methods between the evaluation of each peptide analyte. […] The SPR assay determines the association and dissociation rate constants, kon and koff, for each peptide analyte and, from these values, calculates the binding affinity, […] reported in Table 2.

[1] = biological target: T2, human TNFR1 extracellular domain (ECD) protein (Homo sapiens, UniProt P19438); assay: SPR binding affinity to captured human TNFR1 ECD
T2 construct: HRV 3C protease cleavage site (C); 6His (C, cleaved yes); made in house; host or cells: Sf21 insect cells (baculovirus), secreted
T2 sequence (P19438 30-211): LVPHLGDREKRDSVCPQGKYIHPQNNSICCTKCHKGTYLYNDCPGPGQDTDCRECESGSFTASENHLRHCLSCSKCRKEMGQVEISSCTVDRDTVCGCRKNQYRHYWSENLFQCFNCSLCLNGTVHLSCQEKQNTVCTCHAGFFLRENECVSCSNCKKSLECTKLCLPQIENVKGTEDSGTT
Description: as §1, §2, §3

[2] = biological target: T3, TNFα-induced NF-κB signal transduction pathway (TNFR1 signaling) in THP-1 cells (Homo sapiens, UniProt P19438); assay: THP-1 Lucia NF-κB reporter cell assay, inhibition of TNFα-induced NF-κB signaling; type: cell-based; conditions: THP-1 NF-κB Lucia reporter cells, 10 ng/mL TNFα, 16-18 h, secreted luciferase; read-out: THP-1 IC50
T3 sequence (P19438 30-455): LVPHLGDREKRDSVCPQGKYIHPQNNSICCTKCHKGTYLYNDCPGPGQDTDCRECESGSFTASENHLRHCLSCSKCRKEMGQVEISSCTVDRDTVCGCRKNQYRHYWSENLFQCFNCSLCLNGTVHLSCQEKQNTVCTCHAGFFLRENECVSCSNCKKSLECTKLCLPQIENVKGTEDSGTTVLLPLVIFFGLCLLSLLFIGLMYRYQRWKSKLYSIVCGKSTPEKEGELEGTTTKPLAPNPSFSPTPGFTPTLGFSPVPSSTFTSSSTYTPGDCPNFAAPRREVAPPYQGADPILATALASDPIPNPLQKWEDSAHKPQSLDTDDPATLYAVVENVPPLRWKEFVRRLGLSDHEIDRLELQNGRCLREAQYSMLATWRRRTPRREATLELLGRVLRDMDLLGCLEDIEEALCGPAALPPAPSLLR
Summary of the method: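 Inhibition of TNFR1-driven NF-κB activation was measured as luminescence of secreted reporter luciferase following overnight (16-18 h) stimulation with 10 ng/mL TNFα.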

With CCCC[C@@H]1NC(=O)CSC[C@@H](C(N)=O)NC(=O)[C@H]([C@@H](C)c2c[nH]c3c(OC)cccc23)NC(=O)CN(C)C(=O)[C@H](Cc2ccc(O)cc2)NC(=O)[C@H](Cc2ccc(C(=O)O)cc2)NC(=O)[C@](C)(CO)NC(=O)[C@H](Cc2c[nH]c3c(Cl)cccc23)NC(=O)[C@H](Cc2ccncc2)NC(=O)[C@H](CC(N)=O)NC(=O)[C@H](CCC(=O)O)N(C)C(=O)[C@H](Cc2c[nH]c3ncccc23)NC(=O)[C@H](CO)NC(=O)[C@H]([C@@H](C)c2ccc(O)cc2)NC1=O [SEQ ID NO. 46] ({CH2CO}-[Nle][X12]S[Trp(7-aza)][NMeE]N[4Pal][Trp(7-Cl)][αMeS][Phe(4-COOH)]Y[Sar][Trp(βS-Me,7-OMe)]C-NH2; thioether N-14) the Kd (human TNFR2 ECD protein) was greater than 1000 nM, the Kd [1] was 0.07 nM and the IC50 [2] was 3 nM.

CCCC[C@@H]1NC(=O)[C@@H]2CC[C@@H](C2)NC(=O)[C@H]([C@@H](C)c2c[nH]c3c(OC)cccc23)NC(=O)CN(C)C(=O)[C@H](Cc2ccc(C(=O)O)cc2)NC(=O)[C@H](Cc2ccc(C(N)=O)cc2)NC(=O)[C@](C)(CO)NC(=O)[C@H](Cc2c[nH]c3c(Cl)cccc23)NC(=O)[C@H](Cc2ccc(C(=O)O)nc2)NC(=O)[C@H](CC(N)=O)NC(=O)[C@H]2C[C@H](O)CN2C(=O)[C@H](Cc2c[nH]c3ncccc23)NC(=O)[C@@H]2CC[C@@H](O)CN2C(=O)[C@H](Cc2ccncc2)NC1=O [SEQ ID NO. 57] (cyclo([4Pal][Pip(5R-OH)][Trp(7-aza)][dHyp]N[X25][Trp(7-Cl)][αMeS][Phe(4-CONH2)][Phe(4-COOH)][Sar][Trp(βS-Me,7-OMe)][X1][Nle])) showed a Kd (human TNFR2 ECD protein) greater than 1000 nM, a Kd [1] of 0.09 nM and an IC50 [2] of 0.8 nM.

CCCC[C@@H]1NC(=O)CSC[C@@H](C(N)=O)NC(=O)[C@H]([C@@H](C)c2c[nH]c3c(OC)cccc23)NC(=O)CN(C)C(=O)[C@H](Cc2ccc(O)cc2)NC(=O)[C@H](Cc2ccc(C(=O)O)cc2)NC(=O)[C@](C)(CO)NC(=O)[C@H](Cc2c[nH]c3c(Cl)cccc23)NC(=O)[C@H](Cc2ccncc2)NC(=O)[C@H](CC(N)=O)NC(=O)[C@H](CCC(=O)O)N(C)C(=O)[C@H](Cc2c[nH]c3ncccc23)NC(=O)[C@@H]2CNCCN2C(=O)[C@H](Cc2ccncc2)NC1=O [SEQ ID NO. 68] ({CH2CO}-[Nle][4Pal][Pip(4-aza)][Trp(7-aza)][NMeE]N[4Pal][Trp(7-Cl)][αMeS][Phe(4-COOH)]Y[Sar][Trp(βS-Me,7-OMe)]C-NH2; thioether N-14) showed a Kd (human TNFR2 ECD protein; biotinylated human TNFR2 ECD on streptavidin chip, read-out: SPR hTNFR2 KD) greater than 1000 nM, a Kd ([1]; biotinylated human TNFR1 ECD on streptavidin chip, from kon and koff, read-out: SPR hTNFR1 KD) of 0.55 nM and an IC50 [2] of 3 nM.

C[C@H]1C(=O)N[C@@H](CC(N)=O)C(=O)N[C@@H](Cc2ccncc2)C(=O)N[C@@H](Cc2c[nH]c3ccccc23)C(=O)N[C@@](C)(CO)C(=O)N[C@@H](Cc2ccc(C(=O)O)cc2)C(=O)N[C@@H](Cc2ccc(O)cc2)C(=O)N(C)CC(=O)N[C@@H](Cc2c[nH]c3ccccc23)C(=O)N[C@H]2C=C[C@H](C2)C(=O)N[C@@H](CCc2ccccc2)C(=O)N[C@@H](Cc2ccncc2)C(=O)N[C@@H](CO)C(=O)N[C@@H](Cc2c[nH]c3ccccc23)C(=O)N1C [SEQ ID NO. 73] (cyclo([4Pal]SW[NMeA]N[4Pal]W[αMeS][Phe(4-COOH)]Y[Sar]W[X18][hPhe])) gave a Kd (human TNFR2 ECD protein) greater than 1000 nM, a Kd [1] of 0.9 nM and an IC50 [2] of 5.8 nM.

CNCCCC[C@@H]1NC(=O)[C@@H]2CC[C@@H](C2)NC(=O)[C@H]([C@@H](C)c2c[nH]c3c(OC)cccc23)NC(=O)CN(C)C(=O)[C@H](Cc2ccc(O)cc2)NC(=O)[C@H](Cc2ccc(C(N)=O)cc2)NC(=O)[C@](C)(CO)NC(=O)[C@H](Cc2c[nH]c3c(Cl)cccc23)NC(=O)[C@H](Cc2ccncc2)NC(=O)[C@H](CC(N)=O)NC(=O)[C@H](CCC(=O)O)N(C)C(=O)[C@H](Cc2c[nH]c3ccccc23)NC(=O)[C@@H]2CC[C@@H](O)CN2C(=O)[C@H](Cc2ccncc2)NC1=O [SEQ ID NO. 86] (cyclo([4Pal][Trp(7-Cl)][αMeS][Phe(4-CONH2)]Y[Sar][Trp(βS-Me,7-OMe)][X1][Lys(Me)][4Pal][Pip(5R-OH)]W[NMeE]N)) gave a Kd (human TNFR2 ECD protein) greater than 1000 nM, a Kd [1] of 0.08 nM and an IC50 [2] of 0.5 nM.
